Values of other authors as cited in PMC6243681 (Chemical Science, 2018).

THRPPMWSPVWP
stability in serum / to serum proteases: low stability
